Source: ChEMBL document CHEMBL5725933, “Amino compounds for treatment of complement mediated disorders” (2017)

Target: Complement factor D (Homo sapiens, UniProt P00746)
Assay: Factor D Assay: Human factor D (purified from human serum, Complement Technology, Inc.) at 80 nM final concentration is incubated with test compound at various concentrations for 5 minutes at room temperature in 50 mM Tris, 1M NaCl, pH 7.5. A synthetic substrate Z-L-Lys-SBz1 and DTNB (Ellman's reagent) are added to final concentrations of 100 μM each. The increase in color is recorded at OD405 nm in a microplate in kinetic mode over 30 minutes with 30 second time points in a spectrofluorimeter. IC50 values are calculated by non-linear regression from the percentage of inhibition of complement factor D activity as a function of test compound concentration.

Complement factor D, sequence (P00746 whole entry): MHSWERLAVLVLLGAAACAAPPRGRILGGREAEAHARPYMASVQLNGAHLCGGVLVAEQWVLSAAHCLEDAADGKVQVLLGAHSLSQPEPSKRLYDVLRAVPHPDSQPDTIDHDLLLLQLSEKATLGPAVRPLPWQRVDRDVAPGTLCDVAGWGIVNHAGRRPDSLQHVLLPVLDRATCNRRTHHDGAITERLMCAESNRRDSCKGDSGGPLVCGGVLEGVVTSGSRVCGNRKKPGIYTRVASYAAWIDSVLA

Q: Which IC50 does the source give for `CC(=O)c1cn(CC(=O)N2C[C@H](F)C[C@H]2C(=O)Nc2cccc(Br)n2)c2ccc(Nc3cncc(F)c3)cc12` here?
A: Its IC50 is < 1 µM.
